The target of test [1] is T1, Mannose-6-phosphate isomerase (Homo sapiens, UniProt P34949).
T1 sequence (P34949 whole entry): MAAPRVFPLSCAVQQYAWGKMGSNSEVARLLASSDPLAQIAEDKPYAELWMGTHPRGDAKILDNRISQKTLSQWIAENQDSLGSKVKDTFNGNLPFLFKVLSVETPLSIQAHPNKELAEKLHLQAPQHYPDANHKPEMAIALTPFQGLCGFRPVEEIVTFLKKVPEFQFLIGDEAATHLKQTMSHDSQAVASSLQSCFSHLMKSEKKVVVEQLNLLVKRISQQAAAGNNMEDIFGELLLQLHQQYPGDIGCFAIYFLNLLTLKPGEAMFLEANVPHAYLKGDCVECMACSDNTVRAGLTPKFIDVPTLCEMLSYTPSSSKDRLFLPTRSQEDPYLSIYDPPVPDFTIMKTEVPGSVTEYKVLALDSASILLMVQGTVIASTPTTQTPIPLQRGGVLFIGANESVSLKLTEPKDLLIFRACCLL
Description: phosphomannose isomerase inhibition – biochemical, fluorescence intensity, confirmation (AID 1535).

Test [2] deals with Phosphomannomutase 2 (Homo sapiens, UniProt O15305). Description: Counter screen SAR assay for PMM2 inhibitors via a fluorescence intensity assay. [Related pubchem assays (depositor defined):AID1545, AID1574].
Test [3] has as its target T1, Mannose-6-phosphate isomerase. The test can be described thus: MPI enzyme activity inhibition – biochemical, fluorescence intensity, coupled assay, primary screen (AID 1209).
Test [4] deals with Heat shock protein HSP 90-alpha (Homo sapiens, UniProt P07900). It counts as functional, organism-based.
Test [5] deals with HEK293. The test can be described thus: cells. The following applies: Homo sapiens.
The subject of test [6] is HEK293. The test can be described thus: cells. Particulars: Homo sapiens. This is another data set of the same source.
Test [7] concerns the target Voltage-dependent T-type calcium channel subunit alpha-1H (Homo sapiens, UniProt O95180). It counts as functional.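 Further: channel activity triggered by adding a high calcium stimulation buffer.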
A short description of test [8]: toxicity toward cultured mammalian cells – cell-based, plate reader, cherry-pick samples, cytotoxicity control, dose response (AID 504397). The test is classed as functional.
Test [9] addresses T2, CAAX prenyl protease 2 (Homo sapiens, UniProt Q9Y256).
T2 sequence (Q9Y256 whole entry): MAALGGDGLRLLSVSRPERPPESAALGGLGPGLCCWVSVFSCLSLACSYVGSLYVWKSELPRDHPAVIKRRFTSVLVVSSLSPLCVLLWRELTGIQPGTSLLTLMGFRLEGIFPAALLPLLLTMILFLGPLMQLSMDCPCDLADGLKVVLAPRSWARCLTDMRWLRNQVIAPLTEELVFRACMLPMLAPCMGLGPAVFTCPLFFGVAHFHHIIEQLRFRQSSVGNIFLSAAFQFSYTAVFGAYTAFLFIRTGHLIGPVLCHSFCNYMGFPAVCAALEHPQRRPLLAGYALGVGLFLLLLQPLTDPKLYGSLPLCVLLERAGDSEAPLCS
The test can be described thus: inhibition of Ras-converting CAAX protease Rce1 – biochemical, yeast membranes, quenched-peptide fluorescence, cherry-pick, dose response (AID 588849).

The target of test [10] is T3, CAAX prenyl protease 2 (Saccharomyces cerevisiae S288c, UniProt Q03530).
T3 sequence (Q03530 whole entry): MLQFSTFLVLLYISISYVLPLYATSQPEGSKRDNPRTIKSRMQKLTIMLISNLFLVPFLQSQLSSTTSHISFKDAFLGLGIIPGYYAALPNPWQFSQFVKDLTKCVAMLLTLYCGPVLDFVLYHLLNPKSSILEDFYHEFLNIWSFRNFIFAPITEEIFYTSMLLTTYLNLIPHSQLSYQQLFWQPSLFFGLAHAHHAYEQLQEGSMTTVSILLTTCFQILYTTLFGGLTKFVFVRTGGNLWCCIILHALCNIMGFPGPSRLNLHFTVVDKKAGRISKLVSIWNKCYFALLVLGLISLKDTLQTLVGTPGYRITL
It counts as biochemical.

Test [11] concerns A-375. Description: MITF: Counter assay: A375 proliferation Measured in Cell-Based System Using Plate Reader - 2084-03_Inhibitor_Dose_DryPowder_Activity. [Related pubchem assays (depositor defined):AID488944]. Particulars: Homo sapiens. It counts as functional.
Test [12] concerns A-375. The test can be described thus: proliferation inhibition in MITF-low A375 cells – cell-based, cherry-pick samples, set 2, counter-screen for MITF modulator project, dose response (AID 540335). The test is classed as functional. The following applies: Homo sapiens.
The target in test [13] is UDP-galactopyranose mutase (Mycobacterium tuberculosis, UniProt P9WIQ1). The test can be described thus: Inhibitors of Mycobacterium tuberculosis UDP-galactopyranose mutase (UGM) enzyme Measured in Biochemical System Using Plate Reader - 2105-02_Inhibitor_Dose_CherryPick_Activity. [Related pubchem assays (depositor defined):AID504439].
Test [14] can be described thus: viability loss in THP-1 monocytes – THP-1 cells, cytotoxicity control for Vif-APOBEC3G degradation inhibitor project, dose response (AID 1117359). The test is classed as functional. Particulars: THP-1.
The target in test [15] is Lysine-specific demethylase 4C (Homo sapiens, UniProt Q9H3R0). The test can be described thus: inhibition of JMJD2C H3K9me3 demethylation – biochemical, DELFIA europium, cherry-picked samples, dose response (AID 488835). It counts as functional.
Sequence of Lysine-specific demethylase 4C (Q9H3R0 whole entry): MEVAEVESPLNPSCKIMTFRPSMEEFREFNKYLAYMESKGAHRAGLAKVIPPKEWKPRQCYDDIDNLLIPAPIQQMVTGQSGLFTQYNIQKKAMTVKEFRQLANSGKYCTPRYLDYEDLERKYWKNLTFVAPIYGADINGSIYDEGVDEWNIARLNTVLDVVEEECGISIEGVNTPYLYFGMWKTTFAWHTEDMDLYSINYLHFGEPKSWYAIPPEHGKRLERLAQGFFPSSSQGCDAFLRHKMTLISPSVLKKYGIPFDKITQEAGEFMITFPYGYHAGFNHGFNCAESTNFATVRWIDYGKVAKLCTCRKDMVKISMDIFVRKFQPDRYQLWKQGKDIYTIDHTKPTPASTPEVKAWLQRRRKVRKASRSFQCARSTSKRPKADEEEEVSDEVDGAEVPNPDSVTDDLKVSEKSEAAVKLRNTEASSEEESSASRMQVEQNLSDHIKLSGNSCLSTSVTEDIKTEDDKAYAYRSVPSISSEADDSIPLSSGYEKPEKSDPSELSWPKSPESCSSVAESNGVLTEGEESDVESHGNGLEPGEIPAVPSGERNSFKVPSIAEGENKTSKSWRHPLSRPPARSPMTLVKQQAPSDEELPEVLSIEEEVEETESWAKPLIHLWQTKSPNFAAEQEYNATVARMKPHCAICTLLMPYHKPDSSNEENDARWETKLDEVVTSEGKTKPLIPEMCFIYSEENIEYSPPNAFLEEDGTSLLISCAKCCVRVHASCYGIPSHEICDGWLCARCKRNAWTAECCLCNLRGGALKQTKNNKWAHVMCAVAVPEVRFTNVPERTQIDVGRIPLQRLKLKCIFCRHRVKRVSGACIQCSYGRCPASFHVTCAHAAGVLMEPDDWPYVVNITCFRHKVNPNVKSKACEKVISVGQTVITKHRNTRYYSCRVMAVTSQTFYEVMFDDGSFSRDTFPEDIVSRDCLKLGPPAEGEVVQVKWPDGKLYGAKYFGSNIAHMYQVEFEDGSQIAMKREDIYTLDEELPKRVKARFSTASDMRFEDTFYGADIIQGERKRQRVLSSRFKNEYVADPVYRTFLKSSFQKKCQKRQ
Test [16] concerns the target T4, Microphthalmia-associated transcription factor (Homo sapiens, UniProt O75030).
T4 sequence (O75030 whole entry): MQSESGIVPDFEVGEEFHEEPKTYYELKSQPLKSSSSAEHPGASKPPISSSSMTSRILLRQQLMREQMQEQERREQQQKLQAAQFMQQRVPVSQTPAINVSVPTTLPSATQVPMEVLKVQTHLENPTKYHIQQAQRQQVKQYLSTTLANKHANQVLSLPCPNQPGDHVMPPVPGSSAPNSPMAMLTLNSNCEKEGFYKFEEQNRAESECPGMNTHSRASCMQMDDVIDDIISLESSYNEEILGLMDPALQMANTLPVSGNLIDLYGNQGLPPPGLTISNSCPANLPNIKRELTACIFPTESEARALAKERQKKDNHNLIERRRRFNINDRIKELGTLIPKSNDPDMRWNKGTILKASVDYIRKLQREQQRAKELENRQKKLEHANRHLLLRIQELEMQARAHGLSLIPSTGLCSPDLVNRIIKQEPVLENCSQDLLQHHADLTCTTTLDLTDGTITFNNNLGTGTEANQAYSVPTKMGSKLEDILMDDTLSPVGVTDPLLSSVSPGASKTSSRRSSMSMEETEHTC
Description: reducers of TRPM1 reporter luminescence, concentration series – cell-based, SK-MEL-5, cherry-picked, set 3, MITF inhibitor project, dose response (AID 493073).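 Further: SK-MEL-5 melanoma cells with luciferase driven by the MITF target TRPM1 promoter.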 It counts as functional.

Test [17] addresses Hepatocyte nuclear factor 4-alpha (Homo sapiens, UniProt P41235). It counts as functional, cell-based.
The target of test [18] is Peroxisome proliferator-activated receptor gamma/Nuclear receptor coactivator 2 (Homo sapiens, UniProt P37231). The test can be described thus: TR-FRET dose response biochemical High Throughput Screening assay for agonists of the steroid receptor coactivator 2 (SRC-2) recruitment by the peroxisome proliferator-activated receptor gamma (PPAR gamma): non-selective agonists. [Related pubchem assays: 1297, 1032 ]. The test is classed as functional.
Sequence of Peroxisome proliferator-activated receptor gamma/Nuclear receptor coactivator 2 (P37231 whole entry): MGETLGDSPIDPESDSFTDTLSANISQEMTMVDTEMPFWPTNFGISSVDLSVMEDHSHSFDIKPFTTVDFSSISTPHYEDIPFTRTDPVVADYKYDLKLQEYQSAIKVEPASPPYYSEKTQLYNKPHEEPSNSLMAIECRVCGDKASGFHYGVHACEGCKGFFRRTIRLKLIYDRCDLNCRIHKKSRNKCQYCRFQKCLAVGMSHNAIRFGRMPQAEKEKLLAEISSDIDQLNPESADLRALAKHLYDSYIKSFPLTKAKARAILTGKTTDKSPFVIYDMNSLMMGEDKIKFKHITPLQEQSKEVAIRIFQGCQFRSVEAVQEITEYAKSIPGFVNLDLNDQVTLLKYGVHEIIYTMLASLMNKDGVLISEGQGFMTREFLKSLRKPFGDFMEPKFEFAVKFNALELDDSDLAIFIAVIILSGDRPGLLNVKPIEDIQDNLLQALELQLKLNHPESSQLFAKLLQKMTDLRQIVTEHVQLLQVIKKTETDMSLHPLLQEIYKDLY
Sequence of Peroxisome proliferator-activated receptor gamma/Nuclear receptor coactivator 2 (Q15596 whole entry, further chain): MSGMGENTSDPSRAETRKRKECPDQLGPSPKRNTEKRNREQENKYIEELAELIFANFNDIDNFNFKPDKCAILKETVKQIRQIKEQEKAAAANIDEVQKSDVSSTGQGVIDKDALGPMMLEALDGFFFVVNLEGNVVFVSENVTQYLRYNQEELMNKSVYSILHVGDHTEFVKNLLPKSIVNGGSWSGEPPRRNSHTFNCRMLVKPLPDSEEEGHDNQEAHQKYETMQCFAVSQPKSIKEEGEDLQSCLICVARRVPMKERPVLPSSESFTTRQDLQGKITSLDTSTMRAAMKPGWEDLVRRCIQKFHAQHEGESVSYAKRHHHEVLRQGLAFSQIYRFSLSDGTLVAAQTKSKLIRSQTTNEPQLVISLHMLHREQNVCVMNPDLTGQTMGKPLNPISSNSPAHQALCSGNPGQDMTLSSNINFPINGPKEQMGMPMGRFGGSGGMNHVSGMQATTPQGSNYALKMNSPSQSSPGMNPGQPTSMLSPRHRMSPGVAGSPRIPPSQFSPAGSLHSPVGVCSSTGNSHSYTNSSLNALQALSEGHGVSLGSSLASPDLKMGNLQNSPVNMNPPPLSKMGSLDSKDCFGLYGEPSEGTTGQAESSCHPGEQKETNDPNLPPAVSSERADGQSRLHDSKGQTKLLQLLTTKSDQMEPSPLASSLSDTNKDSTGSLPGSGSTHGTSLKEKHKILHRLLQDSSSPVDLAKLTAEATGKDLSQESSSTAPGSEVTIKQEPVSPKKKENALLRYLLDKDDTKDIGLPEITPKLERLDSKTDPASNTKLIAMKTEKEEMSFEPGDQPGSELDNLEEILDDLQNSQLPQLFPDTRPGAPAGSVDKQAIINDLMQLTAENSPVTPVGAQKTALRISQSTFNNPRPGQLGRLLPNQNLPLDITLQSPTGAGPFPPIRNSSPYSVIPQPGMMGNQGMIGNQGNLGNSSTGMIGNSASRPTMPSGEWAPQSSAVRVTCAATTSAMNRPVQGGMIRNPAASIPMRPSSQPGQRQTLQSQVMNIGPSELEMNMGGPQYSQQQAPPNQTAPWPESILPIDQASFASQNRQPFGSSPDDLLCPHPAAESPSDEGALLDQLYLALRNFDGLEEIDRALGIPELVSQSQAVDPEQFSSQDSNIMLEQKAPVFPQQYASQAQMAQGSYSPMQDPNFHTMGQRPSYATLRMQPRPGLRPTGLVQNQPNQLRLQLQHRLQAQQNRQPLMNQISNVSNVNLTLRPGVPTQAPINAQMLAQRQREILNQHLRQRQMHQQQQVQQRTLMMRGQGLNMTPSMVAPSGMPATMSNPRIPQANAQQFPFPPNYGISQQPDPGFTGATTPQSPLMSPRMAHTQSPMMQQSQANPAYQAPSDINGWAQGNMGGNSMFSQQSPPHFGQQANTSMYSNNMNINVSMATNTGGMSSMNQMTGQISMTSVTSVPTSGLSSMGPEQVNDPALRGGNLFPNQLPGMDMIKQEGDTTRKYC

In test [19] the target is Peroxisome proliferator-activated receptor gamma/Nuclear receptor coactivator 1 (Homo sapiens, UniProt P37231). The test can be described thus: TR-FRET dose response biochemical High Throughput Screening assay for agonists of the steroid receptor coactivator 1 (SRC-1) recruitment by the peroxisome proliferator-activated receptor gamma (PPAR gamma): non-selective agonists. [Related pubchem assays (depositor defined):AID1300, AID1808, AID504735, AID631]. It counts as protein assay. Background: Time-resolved FRET reads energy transfer from a long-lived donor to a nearby acceptor.

For test [20], the target named is Mitogen-activated protein kinase 10 (Homo sapiens, UniProt P53779). The test can be described thus: Dose response biochemical screening assay for inhibitors of c-Jun N-Terminal Kinase 3 (JNK3). [Related pubchem assays: 746 ].
In test [21] the target is Peroxisome proliferator-activated receptor gamma/Nuclear receptor coactivator 3 (Homo sapiens, UniProt P37231). The test can be described thus: TR-FRET dose response biochemical High Throughput Screening assay for agonists of the steroid receptor coactivator 3 (SRC-3) recruitment by the peroxisome proliferator-activated receptor gamma (PPAR gamma): non-selective agonists. [Related pubchem assays: 1301 (Confirmation screen.), 1048 (Primary screen.)]. It counts as functional.
Sequence of Peroxisome proliferator-activated receptor gamma/Nuclear receptor coactivator 3 (P37231 whole entry): as the sequence (P37231 whole entry) above
Sequence of Peroxisome proliferator-activated receptor gamma/Nuclear receptor coactivator 3 (Q9Y6Q9 whole entry, further chain): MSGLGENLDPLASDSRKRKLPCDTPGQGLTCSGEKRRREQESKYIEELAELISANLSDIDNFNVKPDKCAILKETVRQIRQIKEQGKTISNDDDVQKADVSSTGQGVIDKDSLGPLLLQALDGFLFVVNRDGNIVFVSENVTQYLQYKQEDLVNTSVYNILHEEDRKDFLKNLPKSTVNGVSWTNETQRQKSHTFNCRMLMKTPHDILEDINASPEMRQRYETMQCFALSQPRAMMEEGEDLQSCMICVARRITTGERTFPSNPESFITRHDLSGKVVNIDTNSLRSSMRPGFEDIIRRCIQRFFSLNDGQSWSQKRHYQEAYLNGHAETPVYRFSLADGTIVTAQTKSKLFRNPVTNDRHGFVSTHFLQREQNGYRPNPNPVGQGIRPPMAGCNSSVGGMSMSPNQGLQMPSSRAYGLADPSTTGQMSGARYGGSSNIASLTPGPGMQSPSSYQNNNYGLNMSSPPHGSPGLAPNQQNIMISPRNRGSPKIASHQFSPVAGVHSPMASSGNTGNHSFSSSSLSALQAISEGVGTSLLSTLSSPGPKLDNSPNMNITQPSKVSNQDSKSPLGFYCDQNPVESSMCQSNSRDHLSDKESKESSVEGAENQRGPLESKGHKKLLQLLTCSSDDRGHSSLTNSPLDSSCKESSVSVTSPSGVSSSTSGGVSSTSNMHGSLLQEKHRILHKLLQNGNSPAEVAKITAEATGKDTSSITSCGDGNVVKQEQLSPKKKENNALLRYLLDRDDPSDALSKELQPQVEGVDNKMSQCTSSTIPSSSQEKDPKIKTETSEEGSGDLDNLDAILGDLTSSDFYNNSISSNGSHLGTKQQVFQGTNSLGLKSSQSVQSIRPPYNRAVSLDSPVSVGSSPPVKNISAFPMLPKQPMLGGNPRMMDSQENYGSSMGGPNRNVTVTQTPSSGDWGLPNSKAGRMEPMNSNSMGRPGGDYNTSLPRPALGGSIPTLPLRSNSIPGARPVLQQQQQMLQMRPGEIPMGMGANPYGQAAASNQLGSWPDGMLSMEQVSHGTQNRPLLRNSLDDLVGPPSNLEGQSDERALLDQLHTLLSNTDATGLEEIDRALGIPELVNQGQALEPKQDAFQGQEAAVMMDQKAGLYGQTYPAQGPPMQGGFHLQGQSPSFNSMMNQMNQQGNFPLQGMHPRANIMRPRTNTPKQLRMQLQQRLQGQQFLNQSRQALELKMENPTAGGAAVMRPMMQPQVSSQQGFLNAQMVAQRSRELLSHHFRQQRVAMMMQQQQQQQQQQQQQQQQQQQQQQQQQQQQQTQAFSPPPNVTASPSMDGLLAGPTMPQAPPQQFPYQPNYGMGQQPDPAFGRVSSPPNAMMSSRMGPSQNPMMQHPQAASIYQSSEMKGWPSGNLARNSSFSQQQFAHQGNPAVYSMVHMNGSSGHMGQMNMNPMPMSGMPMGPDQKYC

In test [22] the target is Albumin (Bos taurus, UniProt P02769). Description: Counterscreen for inhibitors of T-cell receptor (TCR)-CD3 interaction: Fluorescence-based biochemical high throughput dose response assay to identify inhibitors of T-cell receptor (TCR)-CD3 interaction using a TAMRA-labeled BSA probe. The test is classed as functional. For orientation: Counterscreens check selectivity or assay interference.

Test [23] deals with T5, Protein skinhead-1 (Caenorhabditis elegans, UniProt P34707).
T5 sequence (P34707 whole entry): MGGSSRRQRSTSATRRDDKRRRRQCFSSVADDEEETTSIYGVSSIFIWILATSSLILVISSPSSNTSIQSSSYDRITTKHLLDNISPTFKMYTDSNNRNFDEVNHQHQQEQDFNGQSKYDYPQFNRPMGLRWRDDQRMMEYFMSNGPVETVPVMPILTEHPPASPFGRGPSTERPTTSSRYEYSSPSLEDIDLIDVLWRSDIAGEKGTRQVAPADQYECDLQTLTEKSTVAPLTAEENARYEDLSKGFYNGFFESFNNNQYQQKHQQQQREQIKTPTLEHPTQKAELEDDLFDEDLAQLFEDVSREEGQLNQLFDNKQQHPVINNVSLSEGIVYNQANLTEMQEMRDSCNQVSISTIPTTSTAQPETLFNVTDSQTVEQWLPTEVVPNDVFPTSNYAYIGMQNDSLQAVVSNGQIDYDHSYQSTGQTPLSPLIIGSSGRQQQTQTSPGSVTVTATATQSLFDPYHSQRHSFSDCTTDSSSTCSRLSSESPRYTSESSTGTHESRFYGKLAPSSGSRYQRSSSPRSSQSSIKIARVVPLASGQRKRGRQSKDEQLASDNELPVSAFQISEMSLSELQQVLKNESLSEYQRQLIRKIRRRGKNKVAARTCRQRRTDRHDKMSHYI
It counts as functional.

Results on 11 molecules are retold here after ChEMBL document CHEMBL1201862, “PubChem BioAssay data set” (2004).

The structures appear in SMILES notation. Active and inactive are the calls of the source.

In general, IC50 refers to the point on the concentration scale where inhibition reaches its midpoint. For the molecule `Cc1cc2n(n1)SC(Nc1ccc(F)c(Cl)c1)N2` (stereo not given), the IC50 is > 50 µM (inactive) in test [1], > 100 µM (inactive) in [2] and > 50 µM (not active) in test [3].

The AC50 is the concentration at which the activity in the assay is half-maximal. Broadly, the EC50 is the concentration at which the effect is half-maximal. As to `O=C(C=Cc1ccccn1)c1ccccc1O`, the AC50 in [4] is 2.37 µM (active). Moreover, the EC50 in [5] and in [6] was > 59.6 µM (inactive) throughout.

With `O=C(Nc1ccc(S(=O)(=O)Nc2ccccc2)cc1)C1COc2ccccc2O1` (stereo not given), the EC50 in [7] is 3.37 µM (active). For the same molecule, the AC50 in [8] is 120 µM (active); in [9], 65.5 µM (active); in test [10], 4.26 µM (active).

Turning to `Cc1ccc(SCc2cn3cc(Cl)ccc3n2)cc1`, the AC50 in test [11] and in test [12] was > 35 µM (active) each time.

As for `CN(C)C(=S)N=c1ssc(=S)n1Cc1ccccc1`, the EC50 in test [5] and in [6] was > 59.7 µM (inactive) each time.

In the case of `COc1ccccc1N1C(=O)C2C(C(=O)c3ccccc3)=NN(c3ccc(Br)cc3)C2C1=O` (stereo not given), the AC50 in [13] is 265 µM (active).

Usually CC50 stands for the concentration that lowers cell viability or growth by half. In the case of `O=C1NC(=O)N(Cc2ccc(F)cc2)C(=O)/C1=C\C=C\c1ccco1`, in test [14], the CC50 is 28.9 µM (active). Besides, the results for the AC50 in test [15] and in test [16] were 7.02 µM (active) and 6.63 µM (active), respectively. Further, the IC50 in test [17] is 1.87 µM (active).

For `CCOC(=O)CCC(NC(=O)c1ccc(NCN2C(=O)c3ccccc3C2=O)cc1)C(=O)OCC` (stereo not given), the EC50 in test [18] was > 79.4 µM (not active); in [19] it was > 79.4 µM (inactive); in test [21], > 79.4 µM (not active). The IC50 in test [20] is 13.1 µM (not active).

`O=C(NNC(=O)C1CCN(S(=O)(=O)c2ccccc2)CC1)c1ccccc1O`: the AC50 in [15] was 6.67 µM (active). In addition, in [22], the IC50 is > 94.1 µM (inactive).

As to `Cc1cc(C(C)(C)C)cc(S(=O)(=O)Nc2ccc(C(=O)O)cc2)c1C`, the AC50 in test [13] is 0.201 µM (active).

Regarding `Brc1cc(Br)c2nc(-c3cccs3)ccc2c1`, the EC50 in test [18] is 30 µM (not active); in [19], 34.7 µM (inactive); in test [21], 47.9 µM (not active). In test [23], the IC50 was > 100 µM (inactive).
